Measurements from ChEMBL document CHEMBL4321795, “Metabolism by Aldehyde Oxidase: Drug Design and Complementary Approaches to Challenges in Drug Discovery” (J Med Chem, 2019).
Values belong to the compound of their own block, whether it stands above or below them.

Columns and labels:
Aldehyde oxidase [1] = biological target: T1, Aldehyde oxidase (Homo sapiens, UniProt Q06278); test: Substrate activity at aldehyde oxidase in human liver S9 fractions assessed as enzyme-mediated 2-oxo metabolite formation by measuring half life at 1 uM after 10 to 120 mins by liquid chromatography-tandem mass spectrometry; assay type: ADME, subcellular; details: s9, 1 µM
T1 sequence (Q06278 whole entry): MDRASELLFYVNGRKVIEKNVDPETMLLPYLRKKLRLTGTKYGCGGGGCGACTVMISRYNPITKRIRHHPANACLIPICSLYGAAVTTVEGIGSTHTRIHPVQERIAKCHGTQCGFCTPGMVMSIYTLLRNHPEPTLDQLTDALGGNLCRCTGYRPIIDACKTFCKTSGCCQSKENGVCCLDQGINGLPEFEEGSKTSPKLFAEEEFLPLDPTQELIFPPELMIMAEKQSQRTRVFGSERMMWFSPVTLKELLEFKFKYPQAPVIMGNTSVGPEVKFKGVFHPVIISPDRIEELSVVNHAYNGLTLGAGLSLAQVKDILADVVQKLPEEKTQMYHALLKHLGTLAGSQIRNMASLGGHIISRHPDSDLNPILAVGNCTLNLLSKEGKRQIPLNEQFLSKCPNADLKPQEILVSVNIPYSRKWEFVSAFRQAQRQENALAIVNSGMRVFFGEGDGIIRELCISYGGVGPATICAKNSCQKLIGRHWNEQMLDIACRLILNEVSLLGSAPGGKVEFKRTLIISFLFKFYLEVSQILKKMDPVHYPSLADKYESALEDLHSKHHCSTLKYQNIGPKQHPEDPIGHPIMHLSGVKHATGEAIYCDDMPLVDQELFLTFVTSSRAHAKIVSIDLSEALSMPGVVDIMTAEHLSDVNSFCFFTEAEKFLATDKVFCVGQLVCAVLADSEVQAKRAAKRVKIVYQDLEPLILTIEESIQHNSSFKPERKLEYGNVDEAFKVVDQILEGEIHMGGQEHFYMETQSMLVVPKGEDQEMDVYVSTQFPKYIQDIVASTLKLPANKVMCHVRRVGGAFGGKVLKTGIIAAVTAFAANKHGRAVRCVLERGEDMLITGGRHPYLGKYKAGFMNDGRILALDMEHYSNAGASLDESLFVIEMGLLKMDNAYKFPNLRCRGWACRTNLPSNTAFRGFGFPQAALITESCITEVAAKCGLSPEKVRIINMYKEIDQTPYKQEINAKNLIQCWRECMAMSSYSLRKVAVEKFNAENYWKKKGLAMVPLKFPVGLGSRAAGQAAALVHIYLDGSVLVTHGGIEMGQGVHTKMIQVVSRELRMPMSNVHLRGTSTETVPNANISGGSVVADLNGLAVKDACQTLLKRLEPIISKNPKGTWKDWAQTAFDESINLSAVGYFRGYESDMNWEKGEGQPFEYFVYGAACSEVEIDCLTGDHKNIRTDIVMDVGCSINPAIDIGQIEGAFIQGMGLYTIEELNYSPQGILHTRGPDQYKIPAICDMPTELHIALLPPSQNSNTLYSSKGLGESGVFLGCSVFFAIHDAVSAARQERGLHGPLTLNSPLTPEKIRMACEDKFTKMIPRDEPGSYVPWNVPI

[2] = Oral bioavailability in BDF1 mouse at 25 mg/kg after 2 to 24 hrs by HPLC analysis; assay type: ADME, organism-based; details: in vivo
[3] = Oral bioavailability in BDF1 mouse at 50 mg/kg after 2 to 24 hrs by HPLC analysis; assay type: ADME, organism-based; details: in vivo
Aldehyde oxidase [4] = biological target: T1, Aldehyde oxidase; test: Drug level in human plasma treated with [14C]momelotinib assessed as aldehyde oxidase mediated compound formation at 200 mg, po measured at 24 hrs interval for 504 hrs post dose by liquid scintillation counting; assay type: ADME, organism-based; details: in vivo
Aldehyde oxidase 1 [5] = biological target: T2, Aldehyde oxidase 1 (Rattus norvegicus, UniProt Q9Z0U5); test: Drug level in Sprague-Dawley rat plasma treated with [14C]momelotinib assessed as aldehyde oxidase mediated compound formation at 15 mg/kg, po measured up to 48 hrs by liquid scintillation counting; assay type: ADME, organism-based; details: in vivo
T2 sequence (Q9Z0U5 whole entry): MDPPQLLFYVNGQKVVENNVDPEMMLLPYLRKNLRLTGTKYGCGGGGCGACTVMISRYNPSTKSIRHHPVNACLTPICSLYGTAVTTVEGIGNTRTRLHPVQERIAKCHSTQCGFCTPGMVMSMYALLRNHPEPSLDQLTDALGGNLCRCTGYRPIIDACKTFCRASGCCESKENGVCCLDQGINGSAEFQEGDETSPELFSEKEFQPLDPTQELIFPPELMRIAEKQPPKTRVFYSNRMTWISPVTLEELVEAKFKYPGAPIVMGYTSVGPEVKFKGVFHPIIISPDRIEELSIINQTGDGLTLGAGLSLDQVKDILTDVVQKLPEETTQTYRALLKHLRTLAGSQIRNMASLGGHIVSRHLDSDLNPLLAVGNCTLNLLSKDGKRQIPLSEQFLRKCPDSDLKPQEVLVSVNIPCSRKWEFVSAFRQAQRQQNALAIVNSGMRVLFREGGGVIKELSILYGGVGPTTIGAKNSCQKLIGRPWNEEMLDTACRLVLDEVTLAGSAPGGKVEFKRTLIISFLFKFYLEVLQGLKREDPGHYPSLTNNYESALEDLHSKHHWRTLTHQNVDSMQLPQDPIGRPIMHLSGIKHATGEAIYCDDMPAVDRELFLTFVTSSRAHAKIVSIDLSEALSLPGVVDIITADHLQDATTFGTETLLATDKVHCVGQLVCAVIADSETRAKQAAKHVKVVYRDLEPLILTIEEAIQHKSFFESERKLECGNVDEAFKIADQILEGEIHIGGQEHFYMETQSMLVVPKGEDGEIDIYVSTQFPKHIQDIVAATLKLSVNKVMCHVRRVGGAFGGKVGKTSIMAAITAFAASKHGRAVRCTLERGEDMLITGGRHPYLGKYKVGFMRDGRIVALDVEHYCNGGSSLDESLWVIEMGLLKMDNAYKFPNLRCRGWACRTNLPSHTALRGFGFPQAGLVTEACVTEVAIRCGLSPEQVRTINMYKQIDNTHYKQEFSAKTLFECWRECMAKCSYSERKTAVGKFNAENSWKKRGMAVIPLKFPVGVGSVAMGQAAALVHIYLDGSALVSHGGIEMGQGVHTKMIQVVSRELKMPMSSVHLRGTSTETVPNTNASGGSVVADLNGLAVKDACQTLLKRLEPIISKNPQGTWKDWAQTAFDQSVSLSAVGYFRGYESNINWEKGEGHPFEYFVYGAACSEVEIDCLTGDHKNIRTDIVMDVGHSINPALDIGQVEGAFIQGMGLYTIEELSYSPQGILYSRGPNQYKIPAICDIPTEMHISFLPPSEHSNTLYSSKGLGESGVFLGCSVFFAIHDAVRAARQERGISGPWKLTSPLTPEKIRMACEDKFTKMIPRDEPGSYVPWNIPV

[6] = Drug level in Beagle dog plasma treated with [14C]momelotinib at 15 mg/kg, po measured up to 12 hrs by liquid scintillation counting; assay type: ADME, organism-based, Canis lupus familiaris; details: in vivo
Aldehyde oxidase [7] = biological target: T1, Aldehyde oxidase; test: Substrate activity at aldehyde oxidase in human liver cytosol assessed as enzyme-mediated M2 metabolite formation at 10 uM after 90 mins by LC-MS/MS analysis; assay type: ADME, subcellular
[8] = Drug level in human plasma treated with imrecoxib at 100 mg, po measured up to 96 hrs by UPLC/Q-TOF MS analysis; assay type: ADME, organism-based; details: in vivo
Aldehyde oxidase [9] = biological target: T1, Aldehyde oxidase; test: Substrate activity at aldehyde oxidase in human liver cytosol assessed as enzyme-mediated drug uptake at 1 uM; assay type: ADME, subcellular
Aldehyde oxidase 1 [10] = biological target: T2, Aldehyde oxidase 1; test: Substrate activity at aldehyde oxidase in rat liver cytosol assessed as enzyme-mediated drug uptake at 1 uM; assay type: ADME, subcellular
Aldehyde oxidase 1 [11] = biological target: T3, Aldehyde oxidase 1 (Cavia porcellus, UniProt H9TB17); test: Substrate activity at aldehyde oxidase in guinea pig liver cytosol assessed as enzyme-mediated drug uptake at 1 uM; assay type: ADME, subcellular
T3 sequence (H9TB17 whole entry): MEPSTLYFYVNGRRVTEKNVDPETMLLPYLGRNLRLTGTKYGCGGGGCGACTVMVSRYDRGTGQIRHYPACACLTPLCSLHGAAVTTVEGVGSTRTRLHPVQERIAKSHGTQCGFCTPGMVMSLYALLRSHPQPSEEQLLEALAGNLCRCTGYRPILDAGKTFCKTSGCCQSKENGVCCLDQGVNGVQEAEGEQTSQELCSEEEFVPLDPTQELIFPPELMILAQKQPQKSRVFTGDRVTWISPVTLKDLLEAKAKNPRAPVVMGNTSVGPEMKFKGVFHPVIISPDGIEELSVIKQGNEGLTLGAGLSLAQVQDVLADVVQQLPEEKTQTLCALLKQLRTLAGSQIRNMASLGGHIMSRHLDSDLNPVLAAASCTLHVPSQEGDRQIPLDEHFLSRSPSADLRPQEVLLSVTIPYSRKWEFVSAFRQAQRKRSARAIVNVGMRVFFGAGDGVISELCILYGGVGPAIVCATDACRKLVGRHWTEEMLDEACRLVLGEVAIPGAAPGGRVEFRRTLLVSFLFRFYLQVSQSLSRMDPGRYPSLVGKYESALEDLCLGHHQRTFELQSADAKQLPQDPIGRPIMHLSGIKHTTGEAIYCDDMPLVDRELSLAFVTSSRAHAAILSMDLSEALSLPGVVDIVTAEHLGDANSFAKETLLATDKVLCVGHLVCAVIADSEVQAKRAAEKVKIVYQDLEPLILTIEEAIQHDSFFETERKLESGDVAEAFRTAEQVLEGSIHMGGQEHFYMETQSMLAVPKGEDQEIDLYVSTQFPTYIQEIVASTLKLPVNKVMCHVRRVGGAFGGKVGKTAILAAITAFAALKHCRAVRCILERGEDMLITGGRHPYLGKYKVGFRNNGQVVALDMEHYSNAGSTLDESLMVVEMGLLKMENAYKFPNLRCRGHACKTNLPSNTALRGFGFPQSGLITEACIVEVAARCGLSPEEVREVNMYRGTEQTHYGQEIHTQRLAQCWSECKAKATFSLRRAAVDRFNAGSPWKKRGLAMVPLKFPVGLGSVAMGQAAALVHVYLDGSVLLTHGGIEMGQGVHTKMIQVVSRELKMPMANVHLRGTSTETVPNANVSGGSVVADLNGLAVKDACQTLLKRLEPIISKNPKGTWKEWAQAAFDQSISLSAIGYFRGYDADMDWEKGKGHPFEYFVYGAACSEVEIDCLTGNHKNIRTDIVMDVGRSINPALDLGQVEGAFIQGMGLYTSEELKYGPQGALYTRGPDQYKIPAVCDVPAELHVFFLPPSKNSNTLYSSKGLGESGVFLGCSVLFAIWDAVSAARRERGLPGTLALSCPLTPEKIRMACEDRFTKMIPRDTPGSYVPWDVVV

Aldehyde oxidase [12] = biological target: T1, Aldehyde oxidase; test: Substrate activity at aldehyde oxidase in human hepatocytes assessed as enzyme-mediated drug uptake at 1 uM; assay type: ADME, cell-based

- t1/2 (Aldehyde oxidase [1]): < 0.083 h
Structure (SMILES): N=C(N)NC(=O)c1cnn(-c2ccc3ncccc3c2)c1C1CC1

- bioavailability [2]: 100%
- bioavailability [3]: 78%
Structure (SMILES): Oc1ncc(F)cn1

- Drug uptake (Aldehyde oxidase [4]): 64.2%
- Drug uptake (Aldehyde oxidase 1 [5]): < 10%
- Drug uptake [6]: < 10%
Structure (SMILES): N#CCNC(=O)c1ccc(-c2ccnc(Nc3ccc(N4CCOCC4=O)cc3)n2)cc1

- t1/2 (Aldehyde oxidase [1]): 2 h
Structure (SMILES): COCCc1c(C(=O)NC(=N)N)cnn1-c1cccc2ncccc12

- Activity (Aldehyde oxidase [7]): 77%
Structure (SMILES): CCCN1CC(c2ccc(S(C)(=O)=O)cc2)=C(c2ccc(C=O)cc2)C1=O

- Drug uptake [8]: 68%
Structure (SMILES): CCCN1CC(c2ccc(S(C)(=O)=O)cc2)=C(c2ccc(C(=O)O)cc2)C1=O

- K (Aldehyde oxidase [9]): 3.6 to 6.1
- K (Aldehyde oxidase 1 [10]): 3.6 to 6.1
- K (Aldehyde oxidase 1 [11]): 3.6 to 6.1
- K (Aldehyde oxidase [12]): 1.5
Structure (SMILES): CCNC(=O)OC1CCN(c2nncc3cc(OC)c(OC)cc23)CC1 [CARBAZERAN]
